Assay results from patent US11807650B2, “NMDA receptor modulators and uses thereof” (Novartis AG, priority 2016, dated 2023).

target: T1, human GRIN1 (transcript variant NR1-3) and GRIN2D expressed in Xenopus oocytes (Homo sapiens, UniProt O15399); assay: NR2D oocyte potentiation assay (two-electrode voltage clamp); type: cell-based; conditions: 10 uM test compound; glutamate and glycine 10 μM each; holding potential −40 mV
T1 construct: GenScript (GRIN2D synthesis) SC115601; host or cells: Xenopus oocytes injected with cRNA (1 GluN1 : 2 GluN2)
Description: NR2D Oocyte Potentiation Assay. Xenopus oocytes (Xenopus 1, Dexter, Mich.) were initially separated from the lobes of an ovary using surgical forceps; they were then defolliculated by constant agitation at room temperature in OR-2 buffer (82.5 mM NaCl; 2.5 mM KCl; 1 mM MgCl2; 5 mM HEPES; pH 7.4) containing 2 mg/ml collagenase Type 1 (Fisher Scientific, USA) for 1.5-2 hours. The cells were then gently aspirated with a Pasteur pipette to remove the follicular tissue; this was followed by washing three times with OR-2 to remove all traces of collagenase. The oocytes were then washed in ND-96 (96 mM NaCl, 2 mM KCl, 1.8 mM CaCl2, 1 mM MgCl2, 5 mM HEPES, 50 ng/L gentamycin, 100 units/ml penicillin and 100 μg/ml streptomycin; pH 7.6) three times and this was followed by incubation in ND-96 at room temperature with mild agitation for 15 minutes; subsequently they were stored for at least 2 hours at 16° C. before sorting and selection for injection. Oocytes selected for injection were incubated overnight in ND-96 at 16° C.
The human GRIN1 (transcript variant NR1-3 (Origene, SKU #: SC115601, Rockville, Md.) and GRIN2D (NCBI locus NM_000836, sequence optimized and synthesized by GenScript) were linearized and transcribed using the mMessage mMachine kit (Life Technologies) and promoters SP6 (for GluN1) and T7 (for GluN2D). cRNAs were mixed together at a ratio of 1 GluN1:2 GluN2. Each oocyte was injected with 50 nL of cRNA and stored in ND96 (96 mM NaCl, 2 mM KCl, 1.8 mM CaCl2, 1 mM MgCl2, 5 mM HEPES, 50 ng/L gentamycin, 100 units/ml penicillin and 100 μg/ml streptomycin; pH 7.6) at 16° C. for 72 h prior to recording.
Currents were recorded using a two-electrode voltage-clamp amplifier (Oocyte Clamp OC-725C; Warner Instrument Corp, Hamden, Conn.), and digitized using Digidata 1550A and pClamp (v. 10) software (Molecular Devices, Sunnyvale, Calif.). Electrodes were filled with 3 M KCl and had resistances that ranged from 0.2-1 MO. All measurements were made at a holding potential of −40 mV. Cells were continuously perfused with oocyte recording solution containing 90 mM NaCl, 1 mM KCl, 0.5 mM BaCl2, and 10 mM HEPES (Ph 7.4). Glutamate and Glycine (co-agonists) were applied at respective concentrations of 10 μM each. Co-agonists were applied until a plateau was reached, and test compounds were then added in the continued presence of co-agonists until a new plateau was reached. After the addition of the last test compound concentration, the oocyte was washed with oocyte recording buffer. Fraction of current remaining was calculated as [(current in presence of test compound−background current)/(co-agonist current−background current)] and IC50 values were computed using Prism 6.0 (Graphpad).

T1 sequence (O15399 28-1336, other chains not shown): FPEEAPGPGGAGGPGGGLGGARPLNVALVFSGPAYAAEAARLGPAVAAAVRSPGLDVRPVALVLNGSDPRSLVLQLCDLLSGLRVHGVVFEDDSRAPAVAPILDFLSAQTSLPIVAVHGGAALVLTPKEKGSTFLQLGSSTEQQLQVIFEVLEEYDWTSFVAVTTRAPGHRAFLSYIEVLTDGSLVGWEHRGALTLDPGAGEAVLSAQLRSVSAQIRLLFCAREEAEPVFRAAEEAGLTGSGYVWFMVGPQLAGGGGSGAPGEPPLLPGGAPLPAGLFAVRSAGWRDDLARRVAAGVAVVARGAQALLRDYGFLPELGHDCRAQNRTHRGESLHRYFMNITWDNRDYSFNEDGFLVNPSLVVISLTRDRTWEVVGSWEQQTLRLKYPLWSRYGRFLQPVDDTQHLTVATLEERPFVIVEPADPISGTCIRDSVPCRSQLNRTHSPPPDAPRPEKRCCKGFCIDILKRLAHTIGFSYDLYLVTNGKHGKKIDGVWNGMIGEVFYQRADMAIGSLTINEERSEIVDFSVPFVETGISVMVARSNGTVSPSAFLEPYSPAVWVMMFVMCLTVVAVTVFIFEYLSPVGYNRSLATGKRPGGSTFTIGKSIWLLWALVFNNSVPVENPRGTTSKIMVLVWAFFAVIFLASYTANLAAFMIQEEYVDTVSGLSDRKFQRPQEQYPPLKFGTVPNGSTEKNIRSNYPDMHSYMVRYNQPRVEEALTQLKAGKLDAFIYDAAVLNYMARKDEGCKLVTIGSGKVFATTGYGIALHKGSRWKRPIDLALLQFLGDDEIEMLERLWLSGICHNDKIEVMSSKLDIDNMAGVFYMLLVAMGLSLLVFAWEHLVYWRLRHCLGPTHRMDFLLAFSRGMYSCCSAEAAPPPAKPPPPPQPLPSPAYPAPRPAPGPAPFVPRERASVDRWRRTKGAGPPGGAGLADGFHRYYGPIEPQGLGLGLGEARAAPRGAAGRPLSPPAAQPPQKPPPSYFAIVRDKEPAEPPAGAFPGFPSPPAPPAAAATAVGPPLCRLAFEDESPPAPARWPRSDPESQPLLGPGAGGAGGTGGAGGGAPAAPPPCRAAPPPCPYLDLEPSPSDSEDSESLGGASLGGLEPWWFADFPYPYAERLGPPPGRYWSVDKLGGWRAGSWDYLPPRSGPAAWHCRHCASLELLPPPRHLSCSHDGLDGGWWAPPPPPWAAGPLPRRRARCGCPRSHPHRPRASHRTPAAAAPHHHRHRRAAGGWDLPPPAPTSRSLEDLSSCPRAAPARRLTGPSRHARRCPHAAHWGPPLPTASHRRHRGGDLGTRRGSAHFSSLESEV

Row | Compound | activation at 10 µM [%] | NR2D Oocyte % Potentiation @ 10 uM
1 | Cc1c(-c2ccc(C(C)(C)C)cc2)nc2n(c1=O)CCCS2 [Example 29, 8-(4-(tert-butyl)phenyl)-7-methyl-3,4-dihydro-2H,6H-pyrimido[2,1-b][1,3]thiazin-6-one] | 10 to 100 | 
2 | N#Cc1c(-c2ccc(Br)nc2)nc2n(c1=O)CCCS2 [Example 57, 8-(6-bromopyridin-3-yl)-6-oxo-3,4-dihydro-2H,6H-pyrimido[2,1-b][1,3]thiazine-7-carbonitrile] | 10 to 100 | 
3 | CN1CSc2nc(-c3ccc(C(C)(C)C)cc3)c(C#N)c(=O)n2C1 [Example 6, 8-(4-(tert-butyl)phenyl)-3-methyl-6-oxo-3,4-dihydro-2H,6H-pyrimido[2,1-b][1,3,5]thiadiazine-7-carbonitrile] | 10 to 100 | 
4 | C=Cc1c(-c2ccc(C(C)(C)C)cc2)nc2n(c1=O)CCCC2 [Example 14, 2-(4-(tert-butyl)phenyl)-3-vinyl-6,7,8,9-tetrahydro-4H-pyrido[1,2-a]pyrimidin-4-one] | < 10 | 
5 | CC(C)(C)c1ccc(-c2nc3sccn3c(=O)c2C#N)cn1 [Example 3, 7-(6-(tert-butyl)pyridin-3-yl)-5-oxo-5H-thiazolo[3,2-a]pyrimidine-6-carbonitrile] | 100 to 500 | 
6 | CC(C)(C)c1ccc(-c2nc3n(c(=O)c2Br)CCCS3)cc1 [Example 28, 7-bromo-8-(4-(tert-butyl)phenyl)-3,4-dihydro-2H,6H-pyrimido[2,1-b][1,3]thiazin-6-one] | 100 to 500 | 
7 | CN(C)c1ccc(-c2nc3n(c(=O)c2C#N)CCCS3)cn1 [Example 66, 8-(6-(dimethylamino)pyridin-3-yl)-6-oxo-3,4-dihydro-2H,6H-pyrimido[2,1-b][1,3]thiazine-7-carbonitrile] | 10 to 100 | 
8 | CC(C)(C)c1ccc(-c2nc3n(c(=O)c2C#N)CC(F)(F)CS3)cn1 [Example 24, 8-(6-(tert-butyl)pyridin-3-yl)-3,3-difluoro-6-oxo-3,4-dihydro-2H,6H-pyrimido[2,1-b][1,3]thiazine-7-carbonitrile] | 100 to 500 | 
9 | Cc1c(-c2ccc(C(C)(C)C)nc2)nc2n(c1=O)CCCS2 [Example 31, 8-(6-(tert-butyl)pyridin-3-yl)-7-methyl-3,4-dihydro-2H,6H-pyrimido[2,1-b][1,3]thiazin-6-one] | 10 to 100 | 
10 | C[C@H]1CSc2nc(-c3cnc(C(C)(C)C)nc3)c(C#N)c(=N)n2C1 [Example 100, (R)-8-(2-(tert-butyl)pyrimidin-5-yl)-6-imino-3-methyl-3,4-dihydro-2H,6H-pyrimido[2,1-b][1,3]thiazine-7-carbonitrile] | > 1000 | 
11 | CN1CCCn2c1nc(-c1ccc(C(C)(C)C)nc1)c(C#N)c2=O [Example 94, 8-(6-(tert-butyl)pyridin-3-yl)-1-methyl-6-oxo-1,3,4,6-tetrahydro-2H-pyrimido[1,2-a]pyrimidine-7-carbonitrile] | 100 to 500 | 
12 | C[C@H]1CSc2nc(-c3cnc(C(C)(C)C)c(F)c3)c(C#N)c(=O)n2C1 [Example 98, (R)-8-(6-(tert-butyl)-5-fluoropyridin-3-yl)-3-methyl-6-oxo-3,4-dihydro-2H,6H-pyrimido[2,1-b][1,3]thiazine-7-carbonitrile] | > 1000 | 
13 | Cc1ccc2nc(-c3cnc(C(C)(C)C)nc3)c(C#N)c(=O)n2c1 [Example 22, 2-(2-(tert-butyl)pyrimidin-5-yl)-7-methyl-4-oxo-4H-pyrido[1,2-a]pyrimidine-3-carbonitrile] | 100 to 500 | 
14 | C=Cc1c(-c2ccc(C(C)(C)C)nc2)nc2n(c1=O)CCCS2 [Example 33, 8-(6-tert-butylpyridin-3-yl)-7-ethenyl-2H, 3H,4H,6H-pyrimido [2,1-b][1,3] thiazin-6-one] | 10 to 100 | 
15 | CC1CSc2nc(-c3ccc(N4CC(C)(F)C4)nc3)c(C#N)c(=O)n2C1 (stereo not shown) [Example 51, 8-(6-(3-fluoro-3-methylazetidin-1-yl)pyridin-3-yl)-3-methyl-6-oxo-3,4-dihydro-2H,6H-pyrimido[2,1-b][1,3]thiazine-7-carbonitrile] |  | Inhibitor
16 | C[C@@H]1CSc2nc(-c3cnc(C(C)(C)C)nc3)c(C#N)c(=N)n2C1 [Example 101, (S)-8-(2-(tert-butyl)pyrimidin-5-yl)-6-imino-3-methyl-3,4-dihydro-2H,6H-pyrimido[2,1-b][1,3]thiazine-7-carbonitrile] | > 1000 | 
17 | C[C@@H]1CSc2nc(-c3cnc(C(C)(C)C)nc3)c(C#N)c(=O)n2C1 [Example 74, (S)-8-(2-(tert-butyl)pyrimidin-5-yl)-3-methyl-6-oxo-3,4-dihydro-2H,6H-pyrimido[2,1-b][1,3]thiazine-7-carbonitrile] | 500 to 1000 | 

Now from value to compound:

Row | activation at 10 µM [%] | NR2D Oocyte % Potentiation @ 10 uM | Compound
18 | > 1000 |  | COCSCC1COc2nc(-c3cnc(C(C)(C)C)c(F)c3)c(C#N)c(=O)n2C1 (stereo not shown) [Example 165, 8-(6-tert-butyl-5-fluoropyridin-3-yl)-3-{[(methoxymethyl)sulfanyl]methyl}-6-oxo-2H,3H, 4H,6H-pyrimido [2,1-b][1,3] oxazine-7-carbonitrile]
19 | > 1000 |  | CNC(=O)C1CSc2nc(-c3cnc(C(C)(C)C)c(F)c3)c(C#N)c(=O)n2C1 (stereo not shown) [Example 163, 8-(6-(tert-butyl)-5-fluoropyridin-3-yl)-7-cyano-N-methyl-6-oxo-3,4-dihydro-2H,6H-pyrimido[2,1-b][1,3]thiazine-3-carboxamide]
20 | > 1000 |  | CC(C)(C)c1ncc(-c2nc3n(c(=O)c2C#N)CCCS3)cc1O [Example 127, 8-(6-(tert-butyl)-5-hydroxypyridin-3-yl)-6-oxo-3,4-dihydro-2H,6H-pyrimido[2,1-b][1,3]thiazine-7-carbonitrile]
21 | > 1000 |  | CC(=O)NC[C@@H]1CSc2nc(-c3cnc(C(C)(C)C)c(F)c3)c(C#N)c(=O)n2C1 [Example 169, (S)-N-((8-(6-(tert-butyl)-5-fluoropyridin-3-yl)-7-cyano-6-oxo-3,4-dihydro-2H,6H-pyrimido[2,1-b][1,3]thiazin-3-yl)methyl)acetamide]
22 |  | Inhibitor | CCOC(C)(C)c1ccc(-c2nc3n(c(=O)c2C#N)CC(C)CS3)cn1 (stereo not shown) [Example 121, 8-(6-(2-ethoxypropan-2-yl)pyridin-3-yl)-3-methyl-6-oxo-3,4-dihydro-2H,6H-pyrimido[2,1-b][1,3]thiazine-7-carbonitrile]
23 | 500 to 1000 |  | CC(C)(C)c1ncc(-c2nc3n(c(=O)c2C#N)C[C@@H](CF)CS3)cn1 [Example 141, (S)-8-(2-(tert-butyl)pyrimidin-5-yl)-3-(fluoromethyl)-6-oxo-3,4-dihydro-2H,6H-pyrimido[2,1-b][1,3]thiazine-7-carbonitrile]
24 | > 1000 |  | CC(=O)NCC1CSc2nc(-c3cnc(C(C)(C)C)c(F)c3)c(C#N)c(=O)n2C1 (stereo not shown) [Example 146, N-((8-(6-(tert-butyl)-5-fluoropyridin-3-yl)-7-cyano-6-oxo-3,4-dihydro-2H,6H-pyrimido[2,1-b][1,3]thiazin-3-yl)methyl)acetamide]
25 | > 1000 |  | C[C@H]1CSc2cc(-c3cnc(C(C)(C)C)nc3)c(C#N)c(=O)n2C1 [Example 104, (R)-8-(2-(tert-butyl)pyrimidin-5-yl)-3-methyl-6-oxo-3,4-dihydro-2H,6H-pyrido[2,1-b][1,3]thiazine-7-carbonitrile]
26 | 500 to 1000 |  | CC1CSc2nc(-c3ccc(C(C)(C)CF)nc3)c(C#N)c(=O)n2C1 (stereo not shown) [Example 151, 8-(6-(1-fluoro-2-methylpropan-2-yl)pyridin-3-yl)-3-methyl-6-oxo-3 4-dihydro-2H,6H-pyrimido[2,1-b][1,3]thiazine-7-carbonitrile]
27 | 100 to 500 |  | CC(C)(C)c1ncc(-c2nc3n(c(=O)c2C#N)CC(C(=O)N2CCOCC2)CS3)cc1F (stereo not shown) [Example 162, 8-(6-(tert-butvl)-5-fluoropyndin-3-yl)-3-(morpholine-4-carbonyl)-6-oxo-3,4-dihydro-2H,6H-pyrimido[2,1-b][1,3]thiazine-7-carbonitrile]
28 | 500 to 1000 |  | COCC1CSc2nc(-c3cnc(C(C)(C)C)nc3)c(C#N)c(=O)n2C1 (stereo not shown) [Example 124, 8-(2-(tert-butyl)pyrimidin-5-yl)-3-(methoxymethyl)-6-oxo-3,4-dihydro-2H,6H-pyrimido[2,1-b][1,3]thiazine-7-carbonitrile]
